Assay results: ChEMBL document CHEMBL2021760, “4-(1-Phenyl-1H-pyrazol-4-yl)quinolines as novel, selective and brain penetrant metabotropic glutamate receptor 4 positive allosteric modulators” (Bioorg Med Chem Lett, 2012)
pEC50, pIC50: −log10 of the molar value. In brackets after ≈: the same amount, converted by molar mass. Each block holds one compound with its values, some of them ahead of it. Activity calls are given as the source filed them. The rule behind the calls is not given here.

Columns and labels:
CYP2B6 = target: T1, CYP2B6 (Homo sapiens, UniProt P20813); test: Inhibition of CYP2B6 at 5 uM; assay type: ADME
T1 sequence (P20813 whole entry): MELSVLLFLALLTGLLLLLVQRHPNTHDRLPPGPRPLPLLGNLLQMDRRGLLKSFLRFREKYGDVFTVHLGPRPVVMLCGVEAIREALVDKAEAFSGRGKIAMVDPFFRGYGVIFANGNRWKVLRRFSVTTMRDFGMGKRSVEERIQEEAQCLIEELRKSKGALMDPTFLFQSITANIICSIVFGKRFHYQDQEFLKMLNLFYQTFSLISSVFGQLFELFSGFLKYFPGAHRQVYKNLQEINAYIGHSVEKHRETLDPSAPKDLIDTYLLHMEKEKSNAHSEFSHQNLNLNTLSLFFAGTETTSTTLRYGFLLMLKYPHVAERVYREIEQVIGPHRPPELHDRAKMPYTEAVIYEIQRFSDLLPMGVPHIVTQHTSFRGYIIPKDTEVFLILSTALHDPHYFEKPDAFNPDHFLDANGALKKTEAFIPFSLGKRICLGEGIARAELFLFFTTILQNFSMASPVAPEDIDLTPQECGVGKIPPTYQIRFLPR

[1] = Lipophilicity, log D of compound at pH 7.4; assay type: physicochemical; conditions: buffer
Brain [2] = test: Drug uptake in rat brain at 10 mg/kg, po; assay type: ADME, organism-based; design: dose 10 mg/kg, route oral; conditions: in vivo
CYP3A4 = CYP3A4 (Homo sapiens, UniProt P08684); test: Inhibition of CYP3A4 at 5 uM; assay type: ADME
Plasma [3] = test: Plasma concentration in rat at 10 mg/kg, po; assay type: ADME, organism-based; design: dose 10 mg/kg, route oral; conditions: in vivo
[4] = Kinetic solubility of the compound at pH 7.4; assay type: physicochemical; conditions: buffer, read-out: Kinetic_solubility
Rattus norvegicus = organism: Rattus norvegicus; test: Intrinsic clearance in rat; assay type: ADME, organism-based; conditions: in vivo
[5] = target: T2, Metabotropic glutamate receptor 4 (Homo sapiens, UniProt Q14833); test: Positive allosteric modulation of human mGlu4 receptor expressed in BHK cells assessed as potentiation of glutamate-induced calcium mobilization by FLIPR analysis relative to PHCCC; assay type: functional, cell-based
[6] = target: T2, Metabotropic glutamate receptor 4; test: Positive allosteric modulation of human mGlu4 receptor expressed in BHK cells assessed as potentiation of glutamate-induced calcium mobilization by FLIPR analysis; assay type: functional, cell-based
[7] = Kinetic solubility of the compound at pH 4.0; assay type: physicochemical; conditions: buffer, read-out: Kinetic_solubility
Cerebrospinal fluid [8] = test: Drug uptake in rat CSF at 10 mg/kg, po; assay type: ADME, organism-based; design: dose 10 mg/kg, route oral; conditions: in vivo
[9] = Plasma protein binding in rat; assay type: ADME, cell-free; conditions: read-out: PPB (converted)
[10] = Ratio of drug level in brain to plasma in rat at 10 mg/kg, po; assay type: ADME, organism-based; design: dose 10 mg/kg, route oral; conditions: read-out: BPR
Brain [11] = test: Fraction unbound in rat brain; assay type: ADME, tissue-based
CYP2C9 = CYP2C9 (Homo sapiens, UniProt P11712); test: Inhibition of CYP2C9 at 5 uM; assay type: ADME
CYP2C19 = CYP2C19 (Homo sapiens, UniProt P33261); test: Inhibition of CYP2C19 at 5 uM; assay type: ADME
[12] = target: T2, Metabotropic glutamate receptor 4; test: Positive allosteric modulation of human mGlu4 receptor expressed in BHK cells assessed as fold shift in calcium mobilization by FLIPR analysis relative to glutamate; assay type: functional, cell-based
[13] = target: 5-hydroxytryptamine receptor 2B (Homo sapiens, UniProt P41595); test: Inhibition of 5HT2B
[14] = target: Metabotropic glutamate receptor 8 (Homo sapiens) (UniProt O00222); test: Negative allosteric modulation of mGlu8 receptor at 10 uM
[15] = target: Metabotropic glutamate receptor 3 (Homo sapiens) (UniProt Q14832); test: Agonist activity at mGlu3 receptor at 10 uM; assay type: functional
[16] = target: Metabotropic glutamate receptor 3 (Homo sapiens) (UniProt Q14832); test: Positive allosteric modulation of mGlu3 receptor at 10 uM
[17] = target: Metabotropic glutamate receptor 2 (Homo sapiens) (UniProt Q14416); test: Positive allosteric modulation of mGlu2 receptor at 10 uM
[18] = target: Metabotropic glutamate receptor 5 (Homo sapiens) (UniProt P41594); test: Negative allosteric modulation of mGlu5 receptor at 10 uM
[19] = target: T3, Melatonin receptor type 1A (Homo sapiens, UniProt P48039); test: Agonist activity at MT1 relative to control; assay type: functional
[20] = target: T3, Melatonin receptor type 1A; test: Agonist activity at MT1; assay type: functional
[21] = target: Metabotropic glutamate receptor 8 (Homo sapiens) (UniProt O00222); test: Positive allosteric modulation of mGlu8 receptor at 10 uM
[22] = target: Metabotropic glutamate receptor 6 (Homo sapiens) (UniProt O15303); test: Agonist activity at mGlu6 receptor at 10 uM; assay type: functional
[23] = target: Metabotropic glutamate receptor 6 (Homo sapiens) (UniProt O15303); test: Negative allosteric modulation of mGlu6 receptor at 10 uM
Brain [24] = test: Drug uptake in rat brain at 30 mg/kg, sc; assay type: ADME, organism-based; design: dose 30 mg/kg, route subcutaneous; conditions: in vivo
[25] = target: Metabotropic glutamate receptor 7 (Homo sapiens) (UniProt Q14831); test: Negative allosteric modulation of mGlu7 receptor at 10 uM
[26] = target: Metabotropic glutamate receptor 5 (Homo sapiens) (UniProt P41594); test: Agonist activity at mGlu5 receptor at 10 uM; assay type: functional
[27] = Ratio of drug level in brain to plasma in rat at 30 mg/kg, sc; assay type: ADME, organism-based; design: dose 30 mg/kg, route subcutaneous; conditions: read-out: BPR
[28] = target: Voltage-gated inwardly rectifying potassium channel KCNH2 (Homo sapiens, UniProt Q12809); test: Inhibition of human ERG by electrophysiology assay
[29] = target: Metabotropic glutamate receptor 1 (Homo sapiens) (UniProt Q13255); test: Agonist activity at mGlu1 receptor at 10 uM; assay type: functional
[30] = target: Metabotropic glutamate receptor 6 (Homo sapiens) (UniProt O15303); test: Positive allosteric modulation of mGlu6 receptor at 10 uM
[31] = target: Metabotropic glutamate receptor 8 (Homo sapiens) (UniProt O00222); test: Agonist activity at mGlu8 receptor at 10 uM; assay type: functional
[32] = Inhibition of benzodiazepine receptor
[33] = target: Metabotropic glutamate receptor 3 (Homo sapiens) (UniProt Q14832); test: Negative allosteric modulation of mGlu3 receptor at 10 uM
Plasma [34] = test: Plasma concentration in rat at 30 mg/kg, sc; assay type: ADME, organism-based; design: dose 30 mg/kg, route subcutaneous; conditions: in vivo
[35] = target: Metabotropic glutamate receptor 2 (Homo sapiens) (UniProt Q14416); test: Agonist activity at mGlu2 receptor at 10 uM; assay type: functional
[36] = target: Metabotropic glutamate receptor 7 (Homo sapiens) (UniProt Q14831); test: Agonist activity at mGlu7 receptor at 10 uM; assay type: functional
Cerebrospinal fluid [37] = test: Drug uptake in rat CSF at 30 mg/kg, sc; assay type: ADME, organism-based; design: dose 30 mg/kg, route subcutaneous; conditions: in vivo
[38] = target: Metabotropic glutamate receptor 1 (Homo sapiens) (UniProt Q13255); test: Negative allosteric modulation of mGlu1 receptor at 10 uM
[39] = target: Metabotropic glutamate receptor 2 (Homo sapiens) (UniProt Q14416); test: Negative allosteric modulation of mGlu2 receptor at 10 uM
[40] = target: Metabotropic glutamate receptor 1 (Homo sapiens) (UniProt Q13255); test: Positive allosteric modulation of mGlu1 receptor at 10 uM
[41] = target: Metabotropic glutamate receptor 7 (Homo sapiens) (UniProt Q14831); test: Positive allosteric modulation of mGlu7 receptor at 10 uM
[42] = target: Metabotropic glutamate receptor 5 (Homo sapiens) (UniProt P41594); test: Positive allosteric modulation of mGlu5 receptor at 10 uM

Sequence of CYP3A4 (P08684 whole entry): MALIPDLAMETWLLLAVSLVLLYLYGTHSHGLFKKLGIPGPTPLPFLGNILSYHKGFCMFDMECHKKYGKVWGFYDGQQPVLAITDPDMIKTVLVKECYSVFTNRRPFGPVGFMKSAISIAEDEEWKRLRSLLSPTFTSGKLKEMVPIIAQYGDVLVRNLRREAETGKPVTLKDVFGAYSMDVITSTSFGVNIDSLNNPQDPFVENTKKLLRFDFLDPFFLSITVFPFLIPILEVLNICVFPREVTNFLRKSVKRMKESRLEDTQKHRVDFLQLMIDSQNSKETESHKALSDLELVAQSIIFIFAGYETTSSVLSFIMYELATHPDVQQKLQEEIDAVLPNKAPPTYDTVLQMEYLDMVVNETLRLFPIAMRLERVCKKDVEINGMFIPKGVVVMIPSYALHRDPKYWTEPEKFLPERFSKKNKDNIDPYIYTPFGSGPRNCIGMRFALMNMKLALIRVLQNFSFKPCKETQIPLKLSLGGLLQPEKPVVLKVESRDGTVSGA
T2 sequence (Q14833 whole entry): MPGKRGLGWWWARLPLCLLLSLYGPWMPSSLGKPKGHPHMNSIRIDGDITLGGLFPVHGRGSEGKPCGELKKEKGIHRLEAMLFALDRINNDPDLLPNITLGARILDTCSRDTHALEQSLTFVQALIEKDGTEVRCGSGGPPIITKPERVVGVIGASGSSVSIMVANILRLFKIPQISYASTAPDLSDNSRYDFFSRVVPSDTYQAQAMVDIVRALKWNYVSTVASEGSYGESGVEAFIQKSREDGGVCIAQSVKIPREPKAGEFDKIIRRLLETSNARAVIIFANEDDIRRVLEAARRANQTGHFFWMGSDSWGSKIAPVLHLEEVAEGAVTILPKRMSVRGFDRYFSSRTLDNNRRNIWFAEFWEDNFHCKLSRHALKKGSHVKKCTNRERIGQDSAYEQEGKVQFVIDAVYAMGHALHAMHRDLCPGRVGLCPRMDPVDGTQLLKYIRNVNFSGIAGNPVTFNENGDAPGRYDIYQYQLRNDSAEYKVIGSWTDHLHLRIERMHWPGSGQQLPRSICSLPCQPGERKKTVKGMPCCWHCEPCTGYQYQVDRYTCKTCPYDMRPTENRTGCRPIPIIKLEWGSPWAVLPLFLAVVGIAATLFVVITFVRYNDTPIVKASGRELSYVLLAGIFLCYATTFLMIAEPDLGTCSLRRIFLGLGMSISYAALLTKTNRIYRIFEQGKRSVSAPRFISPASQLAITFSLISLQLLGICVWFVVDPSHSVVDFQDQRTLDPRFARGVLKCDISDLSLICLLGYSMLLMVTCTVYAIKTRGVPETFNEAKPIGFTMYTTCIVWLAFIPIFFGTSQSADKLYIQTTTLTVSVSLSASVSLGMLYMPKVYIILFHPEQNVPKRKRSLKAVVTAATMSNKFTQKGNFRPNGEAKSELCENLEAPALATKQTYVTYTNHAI
Sequence of Metabotropic glutamate receptor 7 (Homo sapiens) (Q14831 whole entry): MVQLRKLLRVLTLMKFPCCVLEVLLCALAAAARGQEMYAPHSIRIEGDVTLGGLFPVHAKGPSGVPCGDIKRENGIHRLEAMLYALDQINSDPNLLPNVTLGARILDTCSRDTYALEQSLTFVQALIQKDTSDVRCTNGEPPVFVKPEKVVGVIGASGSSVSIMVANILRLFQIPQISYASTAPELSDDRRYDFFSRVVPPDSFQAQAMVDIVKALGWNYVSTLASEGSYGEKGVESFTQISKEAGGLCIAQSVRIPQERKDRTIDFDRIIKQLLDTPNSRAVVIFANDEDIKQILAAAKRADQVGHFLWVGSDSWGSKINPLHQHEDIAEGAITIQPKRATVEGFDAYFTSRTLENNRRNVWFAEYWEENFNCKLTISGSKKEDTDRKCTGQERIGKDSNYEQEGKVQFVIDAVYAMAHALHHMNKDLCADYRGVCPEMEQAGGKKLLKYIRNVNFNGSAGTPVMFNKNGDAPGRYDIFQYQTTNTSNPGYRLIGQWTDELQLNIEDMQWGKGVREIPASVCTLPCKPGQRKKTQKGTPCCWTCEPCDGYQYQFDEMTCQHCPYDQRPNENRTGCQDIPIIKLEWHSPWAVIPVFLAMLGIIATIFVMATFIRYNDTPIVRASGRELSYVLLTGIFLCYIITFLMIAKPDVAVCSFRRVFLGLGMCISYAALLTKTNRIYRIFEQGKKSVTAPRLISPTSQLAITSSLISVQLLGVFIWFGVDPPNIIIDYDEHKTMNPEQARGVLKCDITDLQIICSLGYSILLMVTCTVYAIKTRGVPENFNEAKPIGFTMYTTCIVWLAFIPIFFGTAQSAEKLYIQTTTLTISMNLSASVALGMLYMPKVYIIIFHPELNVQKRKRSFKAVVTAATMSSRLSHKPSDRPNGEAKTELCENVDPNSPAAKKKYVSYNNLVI
Sequence of Metabotropic glutamate receptor 5 (Homo sapiens) (P41594 21-1212 limits assumed): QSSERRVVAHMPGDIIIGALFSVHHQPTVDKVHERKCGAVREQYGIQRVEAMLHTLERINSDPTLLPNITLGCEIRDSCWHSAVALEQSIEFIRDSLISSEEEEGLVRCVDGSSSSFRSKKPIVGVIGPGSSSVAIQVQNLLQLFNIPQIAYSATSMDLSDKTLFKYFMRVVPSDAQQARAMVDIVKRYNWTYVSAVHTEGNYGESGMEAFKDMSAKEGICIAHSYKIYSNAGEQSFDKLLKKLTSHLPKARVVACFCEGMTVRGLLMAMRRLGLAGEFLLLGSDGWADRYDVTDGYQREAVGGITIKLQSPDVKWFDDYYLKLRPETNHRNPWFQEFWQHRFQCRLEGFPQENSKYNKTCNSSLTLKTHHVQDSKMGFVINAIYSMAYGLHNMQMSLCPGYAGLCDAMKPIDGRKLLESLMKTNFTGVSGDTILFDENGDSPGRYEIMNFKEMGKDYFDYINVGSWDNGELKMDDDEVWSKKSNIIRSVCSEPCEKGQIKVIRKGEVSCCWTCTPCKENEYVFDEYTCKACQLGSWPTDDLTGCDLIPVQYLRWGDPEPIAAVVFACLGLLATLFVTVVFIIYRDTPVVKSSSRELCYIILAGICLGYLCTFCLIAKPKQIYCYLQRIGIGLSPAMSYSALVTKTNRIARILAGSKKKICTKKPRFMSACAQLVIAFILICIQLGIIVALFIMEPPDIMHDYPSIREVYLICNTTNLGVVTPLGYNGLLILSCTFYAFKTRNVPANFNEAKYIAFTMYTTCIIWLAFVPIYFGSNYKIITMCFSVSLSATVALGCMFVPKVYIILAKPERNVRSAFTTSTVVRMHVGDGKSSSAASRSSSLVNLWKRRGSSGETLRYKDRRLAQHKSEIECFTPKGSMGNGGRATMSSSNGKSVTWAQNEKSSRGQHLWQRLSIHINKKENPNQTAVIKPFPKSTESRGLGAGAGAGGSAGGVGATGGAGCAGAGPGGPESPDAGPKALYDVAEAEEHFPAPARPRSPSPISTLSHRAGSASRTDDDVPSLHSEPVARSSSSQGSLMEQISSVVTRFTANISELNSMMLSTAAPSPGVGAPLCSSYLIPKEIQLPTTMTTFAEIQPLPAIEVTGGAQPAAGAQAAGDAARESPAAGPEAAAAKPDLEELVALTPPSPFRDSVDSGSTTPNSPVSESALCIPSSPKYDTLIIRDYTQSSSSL
Sequence of Metabotropic glutamate receptor 1 (Homo sapiens) (Q13255 19-1194 limits assumed): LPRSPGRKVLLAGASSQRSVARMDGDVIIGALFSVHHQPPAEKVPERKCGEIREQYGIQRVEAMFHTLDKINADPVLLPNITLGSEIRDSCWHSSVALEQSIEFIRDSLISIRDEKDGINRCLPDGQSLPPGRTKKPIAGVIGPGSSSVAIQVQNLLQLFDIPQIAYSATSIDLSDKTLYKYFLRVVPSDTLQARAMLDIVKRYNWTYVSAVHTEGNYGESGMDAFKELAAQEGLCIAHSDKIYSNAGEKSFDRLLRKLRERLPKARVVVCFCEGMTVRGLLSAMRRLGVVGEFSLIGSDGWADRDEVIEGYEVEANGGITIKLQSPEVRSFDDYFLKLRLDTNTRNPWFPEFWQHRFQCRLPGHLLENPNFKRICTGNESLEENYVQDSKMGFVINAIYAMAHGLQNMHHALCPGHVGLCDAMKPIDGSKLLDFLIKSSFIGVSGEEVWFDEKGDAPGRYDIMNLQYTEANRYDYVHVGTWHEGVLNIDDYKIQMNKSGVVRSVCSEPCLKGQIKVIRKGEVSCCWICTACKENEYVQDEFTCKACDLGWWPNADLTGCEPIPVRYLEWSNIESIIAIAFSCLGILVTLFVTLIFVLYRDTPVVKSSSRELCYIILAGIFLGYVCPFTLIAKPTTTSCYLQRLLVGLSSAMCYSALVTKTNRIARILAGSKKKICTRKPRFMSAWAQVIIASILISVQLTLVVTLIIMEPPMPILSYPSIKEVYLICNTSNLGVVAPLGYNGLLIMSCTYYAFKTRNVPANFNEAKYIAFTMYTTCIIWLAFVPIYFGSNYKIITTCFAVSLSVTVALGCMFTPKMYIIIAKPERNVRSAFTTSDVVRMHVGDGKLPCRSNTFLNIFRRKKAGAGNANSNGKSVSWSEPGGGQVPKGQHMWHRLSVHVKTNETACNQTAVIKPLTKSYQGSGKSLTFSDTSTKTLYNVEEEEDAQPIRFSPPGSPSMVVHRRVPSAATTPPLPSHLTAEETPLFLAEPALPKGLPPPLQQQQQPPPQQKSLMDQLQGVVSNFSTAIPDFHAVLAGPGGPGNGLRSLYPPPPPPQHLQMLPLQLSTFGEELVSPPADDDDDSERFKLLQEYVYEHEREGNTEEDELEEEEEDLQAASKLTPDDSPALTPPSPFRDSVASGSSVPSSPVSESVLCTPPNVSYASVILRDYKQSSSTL
T3 sequence (P48039 whole entry): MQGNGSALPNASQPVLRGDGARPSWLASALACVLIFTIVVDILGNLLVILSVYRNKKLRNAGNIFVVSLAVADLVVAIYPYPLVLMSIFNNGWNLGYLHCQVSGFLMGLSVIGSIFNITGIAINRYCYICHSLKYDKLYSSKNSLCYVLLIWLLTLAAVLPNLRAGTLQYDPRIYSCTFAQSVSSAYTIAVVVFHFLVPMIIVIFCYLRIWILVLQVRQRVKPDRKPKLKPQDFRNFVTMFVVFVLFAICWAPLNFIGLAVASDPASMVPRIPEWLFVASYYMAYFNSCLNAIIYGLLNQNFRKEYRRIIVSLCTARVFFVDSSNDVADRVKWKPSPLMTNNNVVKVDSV

Structure (SMILES): c1csc(-n2cc(-c3ccnc4ccccc34)cn2)c1
Emax [5]: 52%
pEC50 [6]: 5.37

Structure (SMILES): c1ccc(-n2cc(-c3ncnc4ccccc34)cn2)cc1
Emax [5]: 35%
pEC50 [6]: 5.46

Structure (SMILES): Cc1nccc(-c2cnn(-c3ccccc3)c2)c1C
Emax [5]: 40%
pEC50 [6]: 5.92

Structure (SMILES): c1ccc(-n2cc(-c3ccnc4cc(OCCCN5CCOCC5)ccc34)cn2)cc1
Emax [5]: 64%
pEC50 [6]: 5.55

Structure (SMILES): CN(C)C(=O)Oc1ccc2c(-c3cnn(-c4ccccc4)c3)ccnc2c1
Emax [5]: 82%
pEC50 [6]: 6.02

Structure (SMILES): O=C(COc1ccc2c(-c3cnn(-c4ccccc4)c3)ccnc2c1)N1CCOCC1
Emax [5]: 17%
pEC50 [6]: < 5.00

Structure (SMILES): c1ccc(-n2cc(-c3ccnc4cc(OCCN5CCCCC5)ccc34)cn2)cc1
Emax [5]: 71%
pEC50 [6]: 5.22

Structure (SMILES): Cc1c(-c2ccnc3ccccc23)cnn1-c1ccccc1
Emax [5]: 130%
pEC50 [6]: 6.17

Structure (SMILES): c1ccc(-n2cc(-c3ccnc4[nH]ccc34)cn2)cc1
Emax [5]: 47%
pEC50 [6]: 5.57

Structure (SMILES): CC(=O)N1CCN(CCOc2ccc3c(-c4cnn(-c5ccccc5)c4)ccnc3c2)CC1
Emax [5]: 75%
pEC50 [6]: 6.16

Now those with a higher pEC50 [6], led by results:

inhibition at 5 µM (CYP2B6): 61%
Drug uptake (Brain [2]): 35 ng/g
inhibition at 5 µM (CYP3A4): 35%
inhibition at 5 µM (CYP2C9): 88%
Cp (Plasma [3]): 23 ng/mL
solubility kinetic [4]: 1.4 µM (≈ 0.541 µg/mL)
CL (Rattus norvegicus): 46 mL/min
Emax [5]: 120%
pEC50 [6]: 6.41
solubility kinetic [7]: 190 µM (≈ 73.4 µg/mL)
Drug uptake (Cerebrospinal fluid [8]): < 1 ng/mL
fraction unbound [9]: 0.012
Kp [10]: 1.5
inhibition at 5 µM (CYP2C19): 83%
Ratio [12]: 11.2
Fu (Brain [11]): 0.4%
Structure (SMILES): CCN(CC)C(=O)Oc1ccc2c(-c3cnn(-c4ccccc4)c3)ccnc2c1

Emax [5]: 110%
pEC50 [6]: 6.41
Structure (SMILES): COCCOc1ccc2c(-c3cnn(-c4ccccc4)c3)ccnc2c1

inhibition at 5 µM (CYP2B6): 35%
logD [1]: 5
Drug uptake (Brain [2]): 180 ng/g
inhibition at 5 µM (CYP3A4): 35%
Cp (Plasma [3]): 220 ng/mL
solubility kinetic [4]: 4.6 µM (≈ 1.39 µg/mL)
CL (Rattus norvegicus): 68 mL/min
Emax [5]: 79%
pEC50 [6]: 6.66
solubility kinetic [7]: 120 µM (≈ 36.2 µg/mL)
Drug uptake (Cerebrospinal fluid [8]): < 1 ng/mL
fraction unbound [9]: 0.002
Kp [10]: 0.8
Fu (Brain [11]): 0.1%
Structure (SMILES): COc1ccc2c(-c3cnn(-c4ccccc4)c3)ccnc2c1

pIC50 [13]: 5.80
Activity [14]: inactive
Activity [15]: inactive
Activity [16]: inactive
Activity [17]: inactive
inhibition at 5 µM (CYP2B6): 56%
Activity [18]: inactive
logD [1]: 3.9
Emax [19]: 84%
pEC50 [20]: 6.04
Activity [21]: inactive
Activity [22]: inactive
Activity [23]: inactive
Drug uptake (Brain [24]): 5055 ng/g
Activity [25]: inactive
inhibition at 5 µM (CYP3A4): 38%
Activity [26]: inactive
Kp [27]: 2.7
Activity [29]: inactive
inhibition at 5 µM (CYP2C9): 48%
Activity [30]: inactive
Activity [31]: inactive
solubility kinetic [4]: 21 µM (≈ 5.7 µg/mL)
CL (Rattus norvegicus): 550 mL/min
Emax [5]: 105%
pIC50 [32]: 5.51
Activity [33]: inactive
pEC50 [6]: 6.66
Cp (Plasma [34]): 1886 ng/mL
solubility kinetic [7]: 150 µM (≈ 40.7 µg/mL)
Activity [35]: inactive
Activity [36]: inactive
Drug uptake (Cerebrospinal fluid [37]): 72 ng/mL
Activity [38]: inactive
fraction unbound [9]: 0.004
Activity [39]: inactive
Activity [40]: inactive
Activity [41]: inactive
Ratio [12]: 12
Activity [42]: inactive
Fu (Brain [11]): 0.7%
Structure (SMILES): c1ccc(-n2cc(-c3ccnc4ccccc34)cn2)cc1
pIC50 [28]: 5.60
